Data published in the NIST ThermoML archive (doi:10.1021/je0499364).
± gives the expanded uncertainty stated by the source.

Experiments:
[1] = molar heat capacity at constant pressure; conditions: 101.33 kPa
[2] = Molar enthalpy of transition or fusion; conditions: Crystal; Adiabatic calorimetry
[3] = Crystal

CCCCCCCC(=O)OC [methyl octanoate]
[1]
Conditions	molar heat capacity at constant pressure [J/K/mol]
5 K, Crystal	0.38 ± 0.03
10 K, Crystal	3.03 ± 0.07
20 K, Crystal	18.19 ± 0.23
30 K, Crystal	33.71 ± 0.22
40 K, Crystal	50.53 ± 0.28
50 K, Crystal	66.36 ± 0.35
60 K, Crystal	79.75 ± 0.4
70 K, Crystal	92.33 ± 0.45
80 K, Crystal	103.39 ± 0.49
90 K, Crystal	113.4 ± 0.63
100 K, Crystal	122.25 ± 0.64
110 K, Crystal	131.1 ± 0.66
120 K, Crystal	138.74 ± 0.68
130 K, Crystal	146.18 ± 0.69
140 K, Crystal	153.44 ± 0.71
150 K, Crystal	160.31 ± 0.72
160 K, Crystal	167.13 ± 0.73
170 K, Crystal	174.18 ± 0.75
180 K, Crystal	181.34 ± 0.76
190 K, Crystal	188.84 ± 0.78
200 K, Crystal	196.94 ± 0.79
210 K, Crystal	205.99 ± 0.81
220 K, Crystal	217.68 ± 0.84
230 K, Crystal	242.75 ± 0.89
240 K, Liquid	301.67 ± 1
250 K, Liquid	301.39 ± 1
260 K, Liquid	303.17 ± 1
270 K, Liquid	305.83 ± 1
280 K, Liquid	308.83 ± 1
290 K, Liquid	312.81 ± 1
300 K, Liquid	316.17 ± 1
310 K, Liquid	320.13 ± 1
320 K, Liquid	323.19 ± 1.1
330 K, Liquid	327.93 ± 1.1
340 K, Liquid	332.21 ± 1.1
350 K, Liquid	336.19 ± 1.1

Conditions	Molar enthalpy of transition or fusion [kcal/mol]	Triple point temperature [K]
[2]	6.13 ± 0.122	–
[3]	–	236.2 ± 0.2
